Like-named read-outs stand apart in the source and are kept apart here.

One may read the IC50 as the concentration that inhibits the measured activity by half.

For the experiment, the system named is H1650 cells. Briefly: CellTiterGlo (CTG) cell viability, 3D, 120 h, H1650 (Example 8). The experiment is classed as cell-based, human. To be noted: Homo sapiens, NCI-H1650, H1650 3D. On the procedure:
H1650 cells were cultivated in RPMI supplemented with 10% heat inactivated fetal bovine serum, penicillin (100 IU/ml), streptomycin (100 μg/ml) and L-glutamine (2 mM). Cell lines were cultured at 37° C. in a humidified atmosphere containing 5% 002. Cells were seeded in 96 microwell round bottom plates (96 microwell Low attachment plates , Costar reference 7007) and exposed to the payloads or ADCs for 120 h (serially diluted; 9 concentrations each, duplicates). Effects of payloads or ADCs on cell viability were assessed after 5 days of incubation at 37° C./5% CO2 by quantification of cellular ATP levels using CellTiterGlo at 75 μL reagent/well. All the conditions were tested in duplicates. Luminescence was quantified on a multipurpose plate reader. IC50S were calculated using standard four-parametric curve fitting. […] Each experiment was performed at least twice, with results being reproducible.
On the technique in general: In ATP-based viability assays light output follows the ATP content of the culture.

[1] abbreviates: experiment n1, read-out: H1650 3D CTG IC50 n1.
Setting [2] is: experiment n2, read-out: H1650 3D CTG IC50 n2.
The mark [3] stands for this setting: mean of n1 and n2, read-out: H1650 3D CTG IC50 Mean of n1 and n2.

As to `Cc1c(Nc2nc3ccccc3s2)nnc2c1CCCN2c1ccc(-c2cnn(CC34CC5(C)CC(C)(C3)CC(OCCN(C)CCC(=O)O)(C5)C4)c2C)c(C(=O)O)n1` [P70, 6-[3-(1,3-benzothiazol-2-ylamino)-4-methyl-6,7-dihydro-5H-pyrido[2,3-c]pyridazin-8-yl]-3-[1-[[3-[2-[2-carboxyethyl(methyl)amino]ethoxy]-5,7-dimethyl-1-adamantyl]methyl]-5-methyl-pyrazol-4-yl]pyridine-2-carboxylic acid], the half-maximal inhibitory concentration (IC50) stood at 9.65 nM under setting [1], 9.49 nM under setting [2] and 9.57 nM under setting [3].

For the compound `COCCCN(C)CCOC12CC3(C)CC(C)(CC(Cn4ncc(-c5ccc(N6CCCc7c6nnc(Nc6nc8ccccc8s6)c7C)nc5C(=O)O)c4C)(C3)C1)C2` [P36, 6-[3-(1,3-benzothiazol-2-ylamino)-4-methyl-6,7-dihydro-5H-pyrido[2,3-c]pyridazin-8-yl]-3-[1-[[3-[2-[3-methoxypropyl(methyl)amino]ethoxy]-5,7-dimethyl-1-adamantyl]methyl]-5-methyl-pyrazol-4-yl]pyridine-2-carboxylic acid], the IC50 was determined as 0.26 nM under setting [1], 0.31 nM under setting [2] and 0.29 nM under setting [3].

Consider `Cc1c(Nc2nc3ccccc3s2)nnc2c1CCCN2c1ccc(-c2cnn(CC34CC5(C)CC(C)(C3)CC(OCCN3CCCC3)(C5)C4)c2C)c(C(N)=O)n1` [P76, 6-[3-(1,3-benzothiazol-2-ylamino)-4-methyl-6,7-dihydro-5H-pyrido[2,3-c]pyridazin-8-yl]-3-[1-[[3,5-dimethyl-7-(2-pyrrolidin-1-ylethoxy)-1-adamantyl]methyl]-5-methyl-pyrazol-4-yl]pyridine-2-carboxamide], for which the concentration for half-maximal inhibition (IC50) under setting [1] is 2 nM, the concentration for half-maximal inhibition (IC50) under setting [2] stood at 3.87 nM and the IC50 under setting [3] was determined as 2.94 nM.

Turning to `Cc1c(Nc2nc3ccccc3s2)nnc2c1CCCN2c1ccc(-c2cnn(C[C@]34C[C@]5(C)C[C@](C)(C3)C[C@@](OCCN(C)CCCCO)(C5)C4)c2C)c(C(=O)O)n1` [P37, 6-[3-(1,3-benzothiazol-2-ylamino)-4-methyl-6,7-dihydro-5H-pyrido[2,3-c]pyridazin-8-yl]-3-[1-[[3-[2-[4-hydroxybutyl(methyl)amino]ethoxy]-5,7-dimethyl-1-adamantyl]methyl]-5-methyl-pyrazol-4-yl]pyridine-2-carboxylic acid], the half-inhibitory concentration (IC50) reads like this: under setting [1], 0.4 nM; under setting [2], 1.2 nM; under setting [3], 0.8 nM.

Regarding `CNCC#Cc1ccc(OCCCc2sc(N3CCCc4c3nnc(Nc3nc5ccccc5s3)c4C)nc2C(=O)O)c(F)c1` [P3, 2-{3-[(1,3-Benzothiazol-2-yl)amino]-4-methyl-5H,6H,7H,8H-pyrido[2,3-c]pyridazin-8-yl}-5-(3-{2-fluoro-4-[3-(methylamino)prop-1-yn-1-yl]phenoxy}propyl)-1,3-thiazole-4-carboxylic acid], the IC50 amounted to 4 nM under setting [1], 28 nM under setting [2] and 16 nM under setting [3].

Take `Cc1c(Nc2nc3ccccc3s2)nnc2c1CCCN2c1ccc(-c2cnn(CC34CC5(C)CC(C)(CC(CCCN6CCCCCC6)(C5)C3)C4)c2C)c(C(=O)O)n1` [P52, 3-[1-[[3-[3-(azepan-1-yl)propyl]-5,7-dimethyl-1-adamantyl]methyl]-5-methyl-pyrazol-4-yl]-6-[3-(1,3-benzothiazol-2-ylamino)-4-methyl-6,7-dihydro-5H-pyrido[2,3-c]pyridazin-8-yl]pyridine-2-carboxylic acid]: the IC50 reads like this: under setting [1], 0.73 nM; under setting [2], 0.38 nM; under setting [3], 0.555 nM.

For `Cc1c(Nc2nc3ccccc3s2)nnc2c1CCCN2c1ccc(-c2cnn(CC34CC5(C)CC(C)(CC(CCCN(C)C)(C5)C3)C4)c2C)c(C(=O)O)n1` [P66, 6-[3-(1,3-benzothiazol-2-ylamino)-4-methyl-6,7-dihydro-5H-pyrido[2,3-c]pyridazin-8-yl]-3-[1-[[3-[3-(dimethylamino)propyl]-5,7-dimethyl-1-adamantyl]methyl]-5-methyl-pyrazol-4-yl]pyridine-2-carboxylic acid], the IC50 under setting [1] turned out to be 0.49 nM, the IC50 under setting [2] was 0.22 nM and the 50% inhibitory concentration (IC50) under setting [3] was 0.355 nM.
